ChEMBL document CHEMBL1153665, “Development of L-689,065 - the prototype of a new class of potent 5-lipoxygenase inhibitors” (Bioorg Med Chem Lett, 1992)

Columns and labels:
[1] = target: T1, Polyunsaturated fatty acid 5-lipoxygenase (Rattus norvegicus, UniProt P12527); experiment: Compound was tested for its inhibitory activity against 5-lipoxygenase in rat.
T1 sequence (P12527 whole entry): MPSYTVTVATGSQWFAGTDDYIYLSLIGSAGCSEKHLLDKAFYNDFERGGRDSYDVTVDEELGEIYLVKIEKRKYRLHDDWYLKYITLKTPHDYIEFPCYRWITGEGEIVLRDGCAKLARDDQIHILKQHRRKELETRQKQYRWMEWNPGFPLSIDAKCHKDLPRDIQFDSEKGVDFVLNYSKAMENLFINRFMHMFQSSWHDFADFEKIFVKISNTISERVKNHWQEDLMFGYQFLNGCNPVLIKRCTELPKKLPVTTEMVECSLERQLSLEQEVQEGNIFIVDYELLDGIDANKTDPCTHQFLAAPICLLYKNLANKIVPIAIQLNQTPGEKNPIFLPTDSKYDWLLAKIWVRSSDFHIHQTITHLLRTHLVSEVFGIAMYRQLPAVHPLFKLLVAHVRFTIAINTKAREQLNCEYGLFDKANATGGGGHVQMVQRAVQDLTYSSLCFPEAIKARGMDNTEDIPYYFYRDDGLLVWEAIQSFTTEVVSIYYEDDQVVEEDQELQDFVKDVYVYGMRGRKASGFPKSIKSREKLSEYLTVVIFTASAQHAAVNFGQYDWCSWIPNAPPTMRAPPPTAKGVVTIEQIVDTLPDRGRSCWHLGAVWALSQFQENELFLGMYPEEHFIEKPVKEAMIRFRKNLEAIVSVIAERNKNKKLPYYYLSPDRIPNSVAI

[2] = target: T2, Arachidonate 5-lipoxygenase-activating protein (Homo sapiens, UniProt P20292); experiment: Compound was tested for its binding activity towards 5-lipoxygenase activating protein (FLAP)
T2 sequence (P20292 whole entry): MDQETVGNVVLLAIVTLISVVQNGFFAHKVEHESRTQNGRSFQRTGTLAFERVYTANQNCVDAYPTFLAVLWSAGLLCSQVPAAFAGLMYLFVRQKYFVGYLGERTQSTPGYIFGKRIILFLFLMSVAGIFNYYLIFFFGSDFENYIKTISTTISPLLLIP

Rattus norvegicus [3] = experiment: Compound was tested for inhibition of dyspnea at 0.5 mg/kg when administered perorally in rats; format: functional; conditions: route oral
Rattus norvegicus [4] = experiment: Time to reach maximum concentration following oral administration of 200 mg/kg in rat; value ranges from 2-4; format: ADME, organism-based; design: dose 200 mg/kg, route oral; conditions: in vivo
[5] = Maximum plasma concentration in rats when a oral dose of 200 mg/kg was given; format: ADME, organism-based; design: dose 200 mg/kg, route oral; conditions: rat

Question: Which results are given for `Cc1c(CC(C)(C)C(=O)O)n(Cc2ccc(Cl)cc2)c2ccc(OCc3ccc(-c4ccccc4)cn3)cc12`?
Answer: IC50 [1]: 700 nM; IC50 [2]: 9.3 nM

Question: With `Cc1c(CC(C)(C)C(=O)O)n(Cc2ccc(Cl)cc2)c2ccc(OCc3ccc4ccccc4n3)cc12` as the compound, how does the IC50 [1] read?
Answer: > 5000 nM

Question: And the IC50 [2]?
Answer: 2.8 nM

Question: For `C=CCc1c(OCc2ccc3ccccc3n2)ccc2c1c(SC(C)(C)C)c(CC(C)(C)C(=O)O)n2Cc1ccc(Cl)cc1`, which IC50 [1] is on record?
Answer: > 8000 nM

Question: What about the IC50 [2] of the same compound?
Answer: 27 nM

Question: Which IC50 [1] does the source give for `CC1Cc2c(OCc3ccc4ccccc4n3)ccc3c2c(c(CC(C)(C)C(=O)O)n3Cc2ccc(Cl)cc2)S1` (centres undefined) here?
Answer: 300 nM

Question: And the IC50 [2]?
Answer: 19 nM

Question: For `CC1Cc2c(OCc3ccc(-c4ccccc4)cn3)ccc3c2c(c(CC(C)(C)C(=O)O)n3Cc2ccc(Cl)cc2)S1` (racemic), which IC50 [1] is on record?
Answer: 60 nM

Question: What about the inhibition in vivo at 0.5 mg/kg (Rattus norvegicus [3]) of the same compound?
Answer: 55%

Question: What about the IC50 [2] of the same compound?
Answer: 22000 nM

Question: And the T max (Rattus norvegicus [4])?
Answer: 2 h

Question: And the Cmax [5]?
Answer: 5 µM

Question: What does the source list for `CC1Cc2c(OCc3ccc(-c4ccccc4)cn3)ccc3c2c(c(CC(C)(C)C(=O)O)n3Cc2ccc(Cl)cc2)S1` (single isomer, unassigned; (+))?
Answer: IC50 [1]: 150 nM; IC50 [2]: > 10000 nM

Question: Which IC50 [1] does the source give for `CC1Cc2c(OCc3ccc(-c4ccccc4)cn3)ccc3c2c(c(CC(C)(C)C(=O)O)n3Cc2ccc(Cl)cc2)S1` (single isomer, unassigned; (-)) here?
Answer: 40 nM

Question: What about the IC50 [2] of the same compound?
Answer: > 10000 nM

Question: Which IC50 [1] does the source give for `CC(C)(C)Sc1c(CC(C)(C)C(=O)O)n(Cc2ccc(Cl)cc2)c2ccc(OCc3ccc4ccccc4n3)cc12` [QUIFLAPON] here?
Answer: > 2000 nM

Question: And the IC50 [2]?
Answer: 2.3 nM
